Values joined by “and” are separate entries in the source; they are usually repeats but may differ in a detail not shown here. Equal values may be shown once.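 Where inhibition never reached the appropriate level, the endpoint shown equals the highest concentration tested. Otherwise, values were interpolated linearly from a five-concentration, 48-hour dose response in 96-well plates. Here, GI50 denotes the concentration required for 50% inhibition of growth.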 Active and inactive are the calls of the source. Cut-off read from the data, not from the text of the source: active = GI50 up to about 1.1 µM and inactive = higher.
Experiments:
Assay in all cases: NCI anticancer screen, dose series, 48 h
[1] = tested on: SK-OV-3
[2] = tested on: 786-0
[3] = tested on: HCC 2998
[4] = tested on: MDA-MB-435
[5] = tested on: NCI-H460
[6] = tested on: HCT-116
[7] = tested on: SR
[8] = tested on: SN12C
[9] = tested on: UACC-257
[10] = tested on: OVCAR-8
[11] = tested on: RXF 393
[12] = tested on: HCT-15
[13] = tested on: M14
[14] = tested on: SK-MEL-5
[15] = tested on: A498
[16] = tested on: T47D
[17] = tested on: MCF7
[18] = tested on: KM12
[19] = tested on: OVCAR-5
[20] = tested on: SNB-75
[21] = tested on: U-251
[22] = tested on: IGROV-1
[23] = tested on: SK-MEL-28
[24] = tested on: BT-549
[25] = tested on: HL-60
[26] = tested on: SW-620
[27] = tested on: SNB-19
[28] = tested on: SF-539
[29] = tested on: MOLT-4
[30] = tested on: DU-145
[31] = tested on: CCRF-CEM
[32] = tested on: SK-MEL-2
[33] = tested on: HOP-92
[34] = tested on: OVCAR-3
[35] = tested on: COLO 205
[36] = tested on: EKVX
[37] = tested on: CAKI-1
[38] = tested on: UO-31
[39] = tested on: A549
[40] = tested on: NCI-H226
[41] = tested on: SF-268
[42] = tested on: Hs-578T
[43] = tested on: NCI-H23
[44] = tested on: LOX IMVI
[45] = tested on: HT-29
[46] = tested on: RPMI-8226
[47] = tested on: NCI/ADR-RES
[48] = tested on: K562
[49] = tested on: UACC-62
[50] = tested on: ACHN
[51] = tested on: TK-10
[52] = tested on: OVCAR-4
[53] = tested on: PC-3
[54] = tested on: HOP-62
[55] = tested on: MDA-MB-231
[56] = tested on: MDA-N
[57] = tested on: Malme-3M
[58] = tested on: NCI-H522
[59] = tested on: SF-295

In the case of `O=S(=O)(O)c1ccc2c(/N=N/c3ccccc3)c(O)ccc2c1`, the GI50 [1] is reported as > 100 µM (inactive), the GI50 [2] is reported as > 100 µM (inactive) and the GI50 [3] is reported as > 100 µM (inactive). The GI50 [4] was > 100 µM (inactive), the GI50 [5] was > 100 µM (inactive) and the GI50 [6] was > 100 µM (inactive). For the same compound, the GI50 [7] was > 100 µM (inactive), the GI50 [8] was > 100 µM (inactive) and the GI50 [9] was > 100 µM (inactive). For the same compound, the GI50 [10] was > 100 µM (inactive), the GI50 [11] was > 100 µM (inactive) and the GI50 [12] was greater than 100 µM. For the same compound, the GI50 [13] was > 100 µM (inactive), the GI50 [14] was > 100 µM (inactive) and the GI50 [15] was > 100 µM (inactive). For the same compound, the GI50 [16] was > 100 µM (inactive), the GI50 [17] was > 100 µM (inactive) and the GI50 [18] was > 100 µM (inactive). The GI50 [19] was > 100 µM (inactive), the GI50 [20] was > 100 µM (inactive) and the GI50 [21] was > 100 µM (inactive). For the same compound, the GI50 [22] was > 100 µM (inactive), the GI50 [23] was > 100 µM (inactive) and the GI50 [24] was > 100 µM (inactive). For the same compound, the GI50 [25] was > 100 µM (inactive), the GI50 [26] was > 100 µM (inactive) and the GI50 [27] was > 100 µM (inactive). For the same compound, the GI50 [28] was > 100 µM (inactive), the GI50 [29] was > 100 µM (inactive) and the GI50 [30] was > 100 µM (inactive). The GI50 [31] was > 100 µM (inactive), the GI50 [32] was > 100 µM (inactive) and the GI50 [33] was > 100 µM (inactive). For the same compound, the GI50 [34] was > 100 µM (inactive), the GI50 [35] was > 100 µM (inactive) and the GI50 [36] was > 100 µM (inactive). For the same compound, the GI50 [37] was > 100 µM (inactive) and the GI50 [38] was > 100 µM (inactive).

For `CC1C2=C(CCCC2=O)N(c2ccc(Cl)cc2)C2=C1C(=O)CCC2`, the GI50 [1] was > 100 µM (inactive), the GI50 [2] was > 100 µM (inactive) and the GI50 [3] was > 100 µM (inactive). For the same compound, the GI50 [39] was 88.5 µM (inactive), the GI50 [40] was > 100 µM (inactive) and the GI50 [5] was 60.5 µM (inactive). For the same compound, the GI50 [7] was 39.2 µM (inactive), the GI50 [8] was 83 µM (inactive) and the GI50 [10] was > 100 µM (inactive). For the same compound, the GI50 [11] was 21.6 µM (inactive), the GI50 [12] was 70 µM and the GI50 [41] was > 100 µM (inactive). The GI50 [13] was > 100 µM (inactive), the GI50 [14] was 40.6 µM (inactive) and the GI50 [15] was > 100 µM (inactive). The GI50 [42] was 50.1 µM (inactive), the GI50 [43] was > 100 µM (inactive) and the GI50 [44] was 68.5 µM (inactive). The GI50 [17] was 57.7 µM (inactive), the GI50 [18] was > 100 µM (inactive) and the GI50 [19] was > 100 µM (inactive). The GI50 [20] was 16.3 µM (inactive), the GI50 [21] was 54.7 µM (inactive) and the GI50 [45] was 45.6 µM (inactive). For the same compound, the GI50 [22] was > 100 µM (inactive), the GI50 [23] was > 100 µM (inactive) and the GI50 [24] was 73.6 µM (inactive). The GI50 [46] was 67 µM (inactive), the GI50 [25] was 31.3 µM (inactive) and the GI50 [26] was > 100 µM (inactive). The GI50 [47] was 71 µM (inactive), the GI50 [48] was 29.9 µM (inactive) and the GI50 [27] was > 100 µM (inactive). The GI50 [28] was > 100 µM (inactive), the GI50 [29] was 20.3 µM (inactive) and the GI50 [49] was 67.1 µM (inactive). The GI50 [50] was 91.2 µM (inactive), the GI50 [31] was 38.5 µM (inactive) and the GI50 [33] was 42.3 µM (inactive). The GI50 [34] was 69.8 µM (inactive), the GI50 [36] was 57.7 µM (inactive) and the GI50 [37] was > 100 µM (inactive). For the same compound, the GI50 [51] was 86.7 µM (inactive), the GI50 [52] was 39.1 µM (inactive) and the GI50 [38] was 46.2 µM (inactive). The GI50 [53] was 60 µM (inactive).

In the case of `NC1CC(=O)c2cc(Br)sc21` (stereo unspecified), the GI50 [1] is reported as > 100 µM (inactive), the GI50 [2] is reported as > 100 µM (inactive) and the GI50 [3] is reported as > 100 µM (inactive). For the same compound, the GI50 [39] was > 100 µM (inactive), the GI50 [4] was > 100 µM (inactive) and the GI50 [5] was > 100 µM (inactive). For the same compound, the GI50 [6] was > 100 µM (inactive), the GI50 [7] was > 100 µM (inactive) and the GI50 [8] was > 100 µM (inactive). For the same compound, the GI50 [9] was > 100 µM (inactive), the GI50 [10] was > 100 µM (inactive) and the GI50 [11] was > 100 µM (inactive). The GI50 [54] was > 100 µM (inactive), the GI50 [12] was greater than 100 µM and the GI50 [41] was > 100 µM (inactive). The GI50 [13] was > 100 µM (inactive), the GI50 [14] was > 100 µM (inactive) and the GI50 [15] was > 100 µM (inactive). The GI50 [16] was > 100 µM (inactive), the GI50 [17] was > 100 µM (inactive) and the GI50 [18] was > 100 µM (inactive). For the same compound, the GI50 [19] was > 100 µM (inactive), the GI50 [55] was > 100 µM (inactive) and the GI50 [20] was > 100 µM (inactive). The GI50 [21] was > 100 µM (inactive), the GI50 [45] was > 100 µM (inactive) and the GI50 [22] was > 100 µM (inactive). For the same compound, the GI50 [23] was > 100 µM (inactive), the GI50 [24] was > 100 µM (inactive) and the GI50 [46] was > 100 µM (inactive). For the same compound, the GI50 [25] was > 100 µM (inactive), the GI50 [26] was > 100 µM (inactive) and the GI50 [47] was > 100 µM (inactive). For the same compound, the GI50 [48] was > 100 µM (inactive), the GI50 [27] was > 100 µM (inactive) and the GI50 [28] was > 100 µM (inactive). For the same compound, the GI50 [29] was > 100 µM (inactive), the GI50 [49] was > 100 µM (inactive) and the GI50 [50] was > 100 µM (inactive). The GI50 [30] was > 100 µM (inactive), the GI50 [31] was > 100 µM (inactive) and the GI50 [32] was > 100 µM (inactive). For the same compound, the GI50 [34] was > 100 µM (inactive), the GI50 [35] was > 100 µM (inactive) and the GI50 [36] was > 100 µM (inactive). The GI50 [37] was > 100 µM (inactive), the GI50 [51] was > 100 µM (inactive) and the GI50 [56] was > 100 µM (inactive). For the same compound, the GI50 [57] was > 100 µM (inactive), the GI50 [38] was > 100 µM (inactive) and the GI50 [53] was > 100 µM (inactive).

With `CC1CCC2(NC1)OC1CC3C4CC=C5CC(O)CCC5(C)C4CCC3(C)C1C2C` (stereo unspecified) the GI50 [1] was 24.8 µM (inactive) and 15.7 µM (inactive), the GI50 [40] was 54 µM (inactive) and 27.8 µM (inactive) and the GI50 [5] was 25.9 µM (inactive) and 14.1 µM (inactive). For the same compound, the GI50 [6] was 18.8 µM (inactive) and 9.86 µM (inactive), the GI50 [7] was 4 µM (inactive) and 2.87 µM (inactive) and the GI50 [8] was 15 µM (inactive) and 22.8 µM (inactive). The GI50 [9] was 55.8 µM (inactive) and 49.1 µM (inactive), the GI50 [11] was 25.2 µM (inactive) and 16.8 µM (inactive) and the GI50 [12] was 32.5 µM and 38.8 µM. For the same compound, the GI50 [13] was 76.6 µM (inactive) and 42.1 µM (inactive), the GI50 [43] was 39.4 µM (inactive) and 37.1 µM (inactive) and the GI50 [16] was 23.4 µM (inactive) and 17.5 µM (inactive). The GI50 [17] was 23.2 µM (inactive) and 42.9 µM (inactive), the GI50 [58] was 31.1 µM (inactive) and 22.4 µM (inactive) and the GI50 [19] was 39.1 µM (inactive) and 40.3 µM (inactive). The GI50 [55] was 12.8 µM (inactive) and 24.9 µM (inactive), the GI50 [20] was 4.72 µM (inactive) and the GI50 [45] was 24.1 µM (inactive) and 12.5 µM (inactive). For the same compound, the GI50 [22] was 32.5 µM (inactive) and 35 µM (inactive), the GI50 [24] was 32.8 µM (inactive) and 48.5 µM (inactive) and the GI50 [46] was 20.6 µM (inactive) and 10.9 µM (inactive). The GI50 [25] was 15.1 µM (inactive) and 11.6 µM (inactive), the GI50 [26] was 18.5 µM (inactive) and 27.8 µM (inactive) and the GI50 [47] was 13.2 µM (inactive) and 14.4 µM (inactive). For the same compound, the GI50 [48] was 14.9 µM (inactive), the GI50 [28] was 17.3 µM (inactive) and 10.9 µM (inactive) and the GI50 [29] was 18.3 µM (inactive) and 18.6 µM (inactive). The GI50 [49] was 27.2 µM (inactive) and 18.1 µM (inactive), the GI50 [31] was 12.4 µM (inactive) and 15.2 µM (inactive) and the GI50 [32] was 29.9 µM (inactive) and 19.5 µM (inactive). For the same compound, the GI50 [33] was 19.5 µM (inactive) and 17.5 µM (inactive), the GI50 [35] was 58.5 µM (inactive) and 40.6 µM (inactive) and the GI50 [36] was 22.5 µM (inactive) and 37.4 µM (inactive). For the same compound, the GI50 [59] was 24.9 µM (inactive) and 18.7 µM (inactive), the GI50 [51] was 12.4 µM (inactive) and 20.4 µM (inactive) and the GI50 [53] was 22.7 µM (inactive) and 34.9 µM (inactive).
